Molecular target: Beta-secretase (BACE) (Homo sapiens, UniProt Q9Y5Z0+P56817)
Experiment: Inhibitory activity against aspartyl protease
Type: protein assay

IC50: 1.4 µM
Compound: CC[C@H](C)[C@H](NC(=O)[C@H](Cc1ccccc1)NC(C)=O)C(=O)NC(CC(C)C)C(O)CC(=O)NC(CC(C)C)C(N)=O (stereo in doubt)
